Among the test systems are ACHN renal; SNB-75 CNS; OVCAR-3 ovarian; PC-3 prostate; MDA-MB-435; NCI-H460 lung; MDA-MB-231 breast; SF-268 CNS; HS 578T breast; SR leukemia.
What all share (test): growth of human tumour cells (NCI), 48 h

Where “and” joins values, the source holds several entries; their conditions need not be identical. Equal values may be shown once.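 Where inhibition never reached the appropriate level, the endpoint shown equals the highest concentration tested. Otherwise, values were interpolated linearly from a five-concentration, 48-hour dose response in 96-well plates. At the GI50, growth is halved. TGI: concentration producing complete growth inhibition.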

For the compound `COc1ccccc1C(=O)N(Cc1ccccc1)c1ccc(Cl)c(C(=O)OC(C)C)c1`, the TGI is 96.8 µM in the assay with ACHN renal; more than 77.5 µM in the assay on SNB-75 CNS; more than 100 µM in the assay on OVCAR-3 ovarian; 75.3 µM in the assay on PC-3 prostate; more than 100 µM with MDA-MB-435; more than 100 µM with NCI-H460 lung. Further, the TGI in the assay with MDA-MB-231 breast, in the assay on SF-268 CNS and with HS 578T breast was more than 100 µM each time.

Consider `O=CN1N=C(c2cccc(Nc3ccnc4cc(Cl)ccc34)c2)CC1c1ccc(Cl)cc1` (stereo unspecified), for which the GI50 in the assay with ACHN renal is 5.17 µM; in the assay with OVCAR-3 ovarian, 1.2 µM; in the assay with MDA-MB-435 it was 0.293 µM; in the assay on NCI-H460 lung, 0.787 µM; in the assay on SR leukemia, 0.367 µM; with MDA-MB-231 breast, 2.12 µM. Moreover, the GI50 with SF-268 CNS was 4.37 µM; in the assay with HS 578T breast, 1.97 µM. Moreover, the TGI in the assay with ACHN renal was more than 100 µM; with OVCAR-3 ovarian it was 7.71 µM; in the assay with MDA-MB-435, 24.9 µM; with NCI-H460 lung it was more than 100 µM; in the assay on SR leukemia it was 2.13 µM; with MDA-MB-231 breast it was more than 100 µM. Also, the TGI with SF-268 CNS and with HS 578T breast was more than 100 µM in each case.

On to `CCCCCCCCCCCCCCCC[n+]1ccccc1`, for which the GI50 in the assay on ACHN renal is 0.733 µM and 0.909 µM; with SNB-75 CNS, 0.528 µM and 0.609 µM; in the assay on OVCAR-3 ovarian, 0.366 µM; with PC-3 prostate it was 0.243 µM and 0.244 µM; in the assay on NCI-H460 lung, 0.388 µM and 0.553 µM; with MDA-MB-231 breast it was 0.44 µM and 0.805 µM. Besides, the GI50 with SF-268 CNS was 0.452 µM and 0.861 µM; in the assay on HS 578T breast, 1.46 µM and 1.67 µM. The TGI in the assay on ACHN renal is 2.16 µM and 4.49 µM; with SNB-75 CNS it was 1.72 µM and 2.78 µM; in the assay with OVCAR-3 ovarian it was 1.5 µM; in the assay on PC-3 prostate, 0.846 µM and 0.692 µM; in the assay on NCI-H460 lung it was 1.5 µM and 1.94 µM; in the assay with MDA-MB-231 breast, 1.74 µM and 2.7 µM. Besides, the TGI with SF-268 CNS is 1.71 µM and 2.57 µM; with HS 578T breast, 4.64 µM and 4.84 µM.

As to `CCN(c1ccccc1)[C@H]1C(=O)N(c2ccc([N+](=O)[O-])cc2)[C@H]1c1ccc(OC)cc1`, the TGI in the assay on ACHN renal, in the assay on SNB-75 CNS, in the assay on OVCAR-3 ovarian, with NCI-H460 lung, with SR leukemia and with SF-268 CNS was more than 100 µM throughout.

On to `COc1cccc(/C=N\NC(=O)C(C)SC(C)C(=O)N/N=C/c2cccc(OC)c2)c1` (stereo unspecified), for which the TGI is 35.6 µM with ACHN renal; 33.2 µM in the assay with SNB-75 CNS; 39.3 µM in the assay with OVCAR-3 ovarian; 23.2 µM in the assay with NCI-H460 lung; more than 100 µM in the assay with SR leukemia; 97.5 µM in the assay with SF-268 CNS.

`C1=CC2CCC1CN2CCC1CNc2ccccc21` (stereo unspecified): the TGI with ACHN renal, with SNB-75 CNS, in the assay with OVCAR-3 ovarian, with SR leukemia and in the assay with SF-268 CNS was more than 100 µM throughout.

In the case of `COc1ccc(/C=N/NS(=O)(=O)c2ccccc2)cc1`, the TGI with ACHN renal, in the assay on SNB-75 CNS, in the assay with OVCAR-3 ovarian, in the assay with NCI-H460 lung, in the assay on SR leukemia and in the assay with SF-268 CNS was more than 100 µM in each case.

Take `COc1cc(OC)c2c(=O)c3cccc([N+](=O)[O-])c3n(C)c2c1`: the TGI in the assay with SNB-75 CNS and in the assay on SF-268 CNS was more than 100 µM each time.

Turning to `COc1cc2c3c(n(CCCNCCCNCCCN)c(=O)c2cc1OC)-c1cc2c(cc1C3=O)OCO2`, the GI50 in the assay on ACHN renal was 91.6 µM; with SNB-75 CNS it was 12.8 µM; with OVCAR-3 ovarian it was 0.879 µM; in the assay with MDA-MB-435 it was 68.4 µM; in the assay on NCI-H460 lung it was more than 100 µM; in the assay on SR leukemia, 13.6 µM. For the same compound, the GI50 in the assay on MDA-MB-231 breast, with SF-268 CNS and with HS 578T breast was more than 100 µM each time. For the same compound, the TGI was more than 100 µM in the assay on ACHN renal; more than 100 µM with SNB-75 CNS; 52.6 µM in the assay with OVCAR-3 ovarian; more than 100 µM with MDA-MB-435; more than 100 µM in the assay with NCI-H460 lung; 89 µM in the assay with SR leukemia. Moreover, the TGI in the assay with MDA-MB-231 breast, with SF-268 CNS and in the assay on HS 578T breast was more than 100 µM each time.

As to `COCC(C(=O)OC1C/C=C/C=C/C(=O)OC(C(C)C(O)C(C)CCC(OC(=O)C(C)N(C)C)C(C)C(OC(C)=O)C(C)/C=C/N(C)C=O)C/C=C/C(OC)CC(C)C/C=C(\C)C(OC)CCC(C)C(O)C1C)N(C)C` (stereo unspecified), the GI50 is 0.000173 µM in the assay on ACHN renal; less than 0.0001 µM in the assay with SNB-75 CNS; less than 0.0001 µM with OVCAR-3 ovarian; less than 0.0001 µM in the assay with PC-3 prostate; less than 0.0001 µM in the assay on NCI-H460 lung; less than 0.0001 µM with SR leukemia. Moreover, the GI50 with MDA-MB-231 breast, with SF-268 CNS and in the assay with HS 578T breast was less than 0.0001 µM each time. Moreover, the TGI in the assay with ACHN renal was more than 0.393 µM; with SNB-75 CNS it was 0.0231 µM; in the assay on OVCAR-3 ovarian, 0.00191 µM; in the assay on PC-3 prostate, more than 1 µM; with NCI-H460 lung, 0.00436 µM; in the assay with SR leukemia it was 0.00341 µM. The values for the TGI in the assay on MDA-MB-231 breast, in the assay with SF-268 CNS and in the assay with HS 578T breast were 0.00136 µM, 0.00161 µM and less than 0.0001 µM, respectively.

As for `CCCCC1(C(NC(=O)c2ccccc2Cl)c2ccncc2)C(=O)N(c2ccccc2)N(c2ccccc2)C1=O` (stereo unspecified), the TGI is more than 100 µM in the assay on ACHN renal; 71.4 µM in the assay on SNB-75 CNS; more than 100 µM with OVCAR-3 ovarian; more than 100 µM in the assay with NCI-H460 lung; 93.9 µM with SR leukemia; more than 100 µM in the assay with SF-268 CNS.

Consider `C[C@H]1CC[P+](C)(c2ccccc2)C1` (stereo partly specified), for which the TGI in the assay on ACHN renal, in the assay with SNB-75 CNS, with OVCAR-3 ovarian, in the assay on NCI-H460 lung and in the assay on SR leukemia was more than 100 µM in each case.

As for `CN(C)c1ccc(C(O)C2=CC(=O)c3ccccc3C2=O)cc1` (stereo unspecified), the GI50 was 3.69 µM in the assay with ACHN renal; 2.75 µM in the assay on OVCAR-3 ovarian; 5.94 µM with MDA-MB-435; 51.9 µM in the assay with NCI-H460 lung; 1.88 µM with SR leukemia; more than 100 µM with SF-268 CNS. For the same compound, the GI50 in the assay on HS 578T breast was 0.509 µM. For the same compound, the TGI is 31.8 µM with ACHN renal; 28 µM in the assay on MDA-MB-435; more than 100 µM with NCI-H460 lung; 4.49 µM in the assay with SR leukemia; more than 100 µM with SF-268 CNS; more than 100 µM with HS 578T breast.

Source of the values: PubChem BioAssay (NCI).
